From patent EP0958819A1, “REMEDIES/PREVENTIVES FOR ABNORMAL MOTIONS ACCOMPANYING DISORDERS IN EXTRAPYRAMIDAL SYSTEM” (Asahi Kasei Kogyo Kabushiki Kaisha, priority 1996, dated 1998) come the findings set out here.

Assay [1] relates to haloperidol-induced catalepsy. Nature of the assay: Therapeutic effect against catalepsy model, haloperidol-induced. The assay is classed as in vivo, Wistar rats. The note with it: 1 mg/kg p.o. given 45 minutes after haloperidol 2 mg/kg i.p. to rats showing catalepsy; measured 75 minutes after compound; 10 rats. How it is done:
(§1) Therapeutic effects of the compound of the present invention on haloperidol or risperidone induced catalepsy were examined using Wistar rats, male (Charles River Inc., Canada).
After further 15 minutes, the compound of the present invention or distilled water was administered orally. Therapeutic effect of the present compound against haloperidol induced catalepsy was measured after 75 minutes of administration of the compound of the present invention.
(§2) Catalepsy was observed by hanging rats in their forepaws on the iron bar, diameter 2 mm, set on the position of 12 cm high, and we measured the duration of catalepsy. Measurements were conducted maximum for 180 seconds. Experiments were conducted in a group of 10 rats for haloperidol-induced catalepsy test and a group of 5 to 6 rats for risperidone induced catalepsy test. The mean duration of catalepsy in distilled water (vehicle of the compound in present invention)-administered group was defined as 100 %. Suppressive rate was indicated as percent of the shortening on the duration of catalepsy in the compound-administered group comparing with the mean of that in distilled water administered group.

Another assay relates to red nucleus. Nature of the assay: Effect on the firing rate in the red nucleus (electrophysiology, anesthetized rats). In kind it is in vivo, Wistar rats. The note with it: firing rate before administration = 100 %. From the text: The red nucleus belongs extrapyramidal system and have an important role for regulating motor function. Destruction of the red nucleus in rats was reported to enhance the catalepsy. (Kolasa. K. et al., Pharmacol. Biochem. Behav.,51, 29 - 35, 1995). As shown in Example 4 dystonia model, unilateral infusion of haloperidol into red nucleus of rats results to appear dystonia. As shown like this, the hypofunction of red nucleus have a close relation with the expression of abnormal movements accompanying disorders of extrapyramidal system. Namely, hypofunction of red nucleus is considered to lead to the abnormal movements accompanying disorder of extrapyramidal system. In this experiment, effect of the compound of the present invention on the haloperidol-induced decrease of firing rate in red nucleus was examined. […]
Electric signals from the glass electrode were amplified with a micro electrode amplifier (MEZ-8301, Nihon Koden Co., Japan), filtered band path of 3 kHz - 50 Hz and humfilter and monitored on a oscilloscope (VC-11, Nihon Koden Co., Japan). […] Number of firing/10 seconds (firing rate) was calculated using pulse counter (MET-1100, Nihon Koden Co., Japan) and recorded by computer (Maclab ver. 3.5. Macintosh) with time dependent manner. […]

In assay [2] the test system is haloperidol-induced catalepsy. As to the kind of experiment: Preventive effect for catalepsy model, haloperidol-induced. The assay is classed as in vivo, Wistar rats. The note with it: 1 mg/kg p.o. 30 minutes before haloperidol 2 mg/kg i.p.; catalepsy observed 1 hour after haloperidol; shortening of catalepsy duration vs distilled water group; 10 rats. How it is done: (§3) When a drug having dopamine receptor blocking activity is administered in rats, catalepsy induced. Catalepsy means a symptom of rats, which can not recovered by own intention, when rats are enforced unnatural posture, and it reflects abnormal movements consisting of mainly tremor, muscle rigidity and hypokinesia. (Hornykiewicz, O. Br. Med. Bull., 29, 172 - 178, 1973). […] (Schmidt, W.J. and Bubser, M., Pharmacol. Biochem. Behavior., 32, 621 - 623, 1988).
(§4) The compound A hydrochloride, 1mg/kg, was administered orally into Wistar rats, male (Japan Charles River Inc.). After 30 minutes, haloperidol (Sigma Corp., U.S.A.), 2mg/kg, or risperidone, which was extracted from Risperdal (trade name, Janssen Corp.,UK) according to the method hereinbelow explained, 20 mg/kg were administered intraperitoneally. Catalepsy after 1 hour of administration of haloperidol or risperidone was observed. Catalepsy was observed by hanging rats in their forepaws on the iron bar, diameter 2 mm, set on the position of 12 cm high, and we measured the time maintaining this posture. Measurements were conducted maximum for 180 seconds. Experiments were conducted in a group of 10 rats for haloperidol induced catalepsy test and a group of 5 rats for risperidone induced catalepsy test. The mean duration of catalepsy in distilled water (vehicle of the compound in present invention)-administered group was defined as 100 %. […]

For assay [3], the system named is risperidone-induced catalepsy. Nature of the assay: Preventive effect for catalepsy model, risperidone-induced. The note with it: 1 mg/kg p.o. 30 minutes before risperidone 20 mg/kg i.p.; catalepsy observed 1 hour after risperidone; shortening of catalepsy duration vs distilled water group; 5 rats. The assay is classed as in vivo, Wistar rats. How it is done: as §3, §4

The test system of assay [4] is risperidone-induced catalepsy. Nature of the assay: Therapeutic effect against catalepsy model, risperidone-induced. In kind it is in vivo, Wistar rats. Particulars: 1 mg/kg p.o. given 75 minutes after risperidone 20 mg/kg i.p. to rats showing catalepsy; measured 105 minutes after compound; 5 to 6 rats. How it is done:
as §1
After further 15 minutes, the compound of the present invention or distilled water was administered orally. Therapeutic effect of the present compound against risperidone induced catalepsy was measured after 105 minutes of administration of the compound of the present invention.
as §2

The next assay relates to dystonia model. As to the kind of experiment: Inhibitory effect against dystonia model (haloperidol infused into red nucleus). The assay is classed as in vivo, Wistar rats. Particulars: combined infusion of haloperidol 3 nmol and compound 0.03 nmol into red nucleus; maximum torsional angle, mean ± S.D., 12 rats; control (haloperidol 3 nmol) 24.1 ± 1.7; p<0.01. The text has this: Unilateral infusion of haloperidol into red nucleus of rats results to appear continuous torsional movements of the head when the infusion side was laid down under side. This model reflects dystonia characterized by slow involuntary movement and hypermyotonia, which is one of abnormal movements accompanying disorders of extrapyramidal system. (Matsumoto, R.R. et al. Pharmacol. Biochem. Behavior.,36, 151 - 155, 1989). Evaluation of the compound of the present invention on dystonia model was performed by the following method.
Wistar rats (Japan Charles River Inc., 9 weeks old) were anesthetized by administration of pentobarbital (Somnopentil injection) 50 mg/kg intraperitoneally, and fixed the head by stereotaxic apparatus (David Coop Inc. U.S.A., David kopf). Scalp was incised and the bone of skull was exposed. Guide cannula 25G (Eicom Inc., Japan) was implanted 4.5 mm the above the left red nucleus and fixed with dental cement. After 2 - 3 days, injection cannula 27G (Eicom Inc., Japan) was inserted into the guide cannula without anesthetization. The tip of the cannula was introduced into the red nucleus below 4.5 mm of the guided cannula. […]
Rats were set into the observation cage made with transparent acrylic resin and recorded the front view image by video camera. […]

Assay [5] has as its system involuntary head-movements induced by IPDN. As to the kind of experiment: Antagonistic action against IDPN model (head movements). In kind it is in vivo, Sprague-Dawley rats. Particulars: 1 mg/kg p.o.; IDPN 150 mg/kg i.p. for 6 days; counted during 30 minutes starting 30 minutes after dosing; mean ± standard error, 6 rats; control group 347 ± 14.4; p < 0.01. How it is done: When […] (IDPN, Tokyo Kasei Kogyo K.K., Japan) is administered in rats, rapid reciprocation of horizontal and vertical head movements is induced. […] This is very similar to the abnormal movements accompanying disorders of extrapyramidal system of human, which is classified into the group with major symptom of rapid involuntary movement and muscle hypotonia. (Schneider, J. S., Exp. Neurol., 84, 524 - 532, 1984).
IDPN (Tokyo Kasei Kogyo K.K., Japan) 150 mg/kg was administered to Sprague-Dawley rats (Charles River Inc., 7 weeks old) for 6 days intraperitoneally. Animals expressing horizontal and vertical head movements (at initiation of the experiment: 12 - 14 weeks old) within after 2 weeks of administration were used for dyskinesia model animals. The compound of the present invention (1 mg/kg) or distilled water (as a control group) was administered orally in rats. After 30 minutes, numbers of horizontal and vertical head movements neck during 30 minutes thereafter were counted. One reciprocation is counted as one motion.

Structures can show the parent of a compound that is named as a salt. Marks after values point to notes of the source that are not given here.

On to `CC1(C)C2CC[C@]1(C)CN(CCC1C3CC4CC(C3)CC1C4)C2` (stereo partly drawn) [Compound A hydrochloride, (1S)-3-[2-(2-adamantyl)ethyl]-1,8,8-trimethyl-3-azabicyclo [3.2.1]-octane], for which the “Suppressive rate (mg/kg, p.o.)” value is reported as 50% (1) in assay [1], 77% (1) in assay [2], 53% (1) in assay [3] and 48% (1) in assay [4]. Besides, in the assay with red nucleus (compound 0.1 µg/kg i.v. 1 - 3 minutes before haloperidol 0.2 mg/kg i.v., P<0.05), the “% Inhibitor of firing rate” value was 24.7 %*.
`O=C(CCCN1CCC(O)(c2ccc(Cl)cc2)CC1)c1ccc(F)cc1` [haloperidol, reference compound]: the “% Inhibitor of firing rate” value in the assay on red nucleus (saline i.v. 1 - 3 minutes before haloperidol 0.2 mg/kg i.v.) is listed as 60.1%.
On to `CC1(C)C2CC[C@]1(C)CN(CCC1C3CC4CC(C3)CC1C4)C2` (stereo partly drawn) [Compound A, (1S)-3-[2-(2-adamantyl)ethyl]-1,8,8-trimethyl-3-azabicyclo [3.2.1]-octane], for which, in the assay on dystonia model, the “torsional angle of head” value was found to be 15.5 ± 1.3. In assay [5], the “Numbers of oscillation of neck” value is 224.5 ± 24.4.
